1 molecule from patent US7163923B2, “Peptide deformylase activated prodrugs” (Celmed Oncology (USA), Inc., priority 2001, dated 2007) can be followed below.

The nature of the data set: Toxicity to mammalian cells. It counts as cell-based. The following applies: after 16 hours of exposure. On the procedure: Mammalian cells were treated with NB2046 as described above.

`CSCCC(NC=O)C(=O)NC(CC(C)C)C(=O)Oc1cc(Cl)ccc1Oc1ccc(Cl)cc1Cl` (stereo not shown) [NB2046, 2-(2-formylamino-4-methylsulfanyl-butyrylamino)-4-methyl-pentanoic acid 5-chloro-2-(2,4-dichloro-phenoxy)-phenyl ester] showed an IC50 at 16 h of approximately 30 µM.
